Patent US4584382A, “Pyridyl acrylate compound” (priority 1984, dated 1986)
One block for each molecule: values may come before it.

Experiments:
[1] = biological target: T1, H1 histamine receptor (Cavia porcellus, UniProt P31389); assay: Antihistaminic activity: antagonism of histamine concentration-response curves in isolated guinea-pig ileum longitudinal muscle (Schild plot); assay type: cell-based; details: negative log of the antagonist concentration shifting the histamine control curve 2X to the right; one hour incubation; read-out: pA2 (converted)
T1 construct: The longitudinal muscle was isolated from the intact ileum of guinea-pigs; from tissue; host or cells: guinea-pig (Hartley, male) ileum longitudinal muscle
T1 sequence (P31389 whole entry): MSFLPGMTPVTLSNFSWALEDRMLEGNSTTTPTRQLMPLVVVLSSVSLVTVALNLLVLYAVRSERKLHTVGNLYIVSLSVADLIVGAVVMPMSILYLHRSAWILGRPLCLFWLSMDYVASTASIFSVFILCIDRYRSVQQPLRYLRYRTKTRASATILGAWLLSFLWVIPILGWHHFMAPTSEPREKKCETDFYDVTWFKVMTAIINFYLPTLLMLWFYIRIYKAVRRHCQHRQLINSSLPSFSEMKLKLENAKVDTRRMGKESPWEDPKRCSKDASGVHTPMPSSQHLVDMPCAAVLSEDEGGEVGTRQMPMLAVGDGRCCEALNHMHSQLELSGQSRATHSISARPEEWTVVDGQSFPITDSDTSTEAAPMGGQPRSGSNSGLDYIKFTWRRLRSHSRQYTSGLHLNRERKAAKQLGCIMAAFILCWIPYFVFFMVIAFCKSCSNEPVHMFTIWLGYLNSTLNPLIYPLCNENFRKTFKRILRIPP
Method: The longitudinal muscle was isolated from the intact ileum of guinea-pigs (Hartley, male 250-400 g) and placed in an organ bath under 300 mg tension. After one hour of equilibration, cumulative concentration-response curves (Van Rossum, J. M., Arch. Int. Pharmacodyn. Ther. 143, 299-330, 1963) to histamine were obtained. Following washing, the tissues were incubated for one hour with the test compound and then a second histamine concentration-response curve was run. Shifts to the right of the agonist concentration-response curve produced by the antagonists were used to construct Schild plots (Arunlakshana, O. and Schild, H. O., Br. J. Pharmacol: 14, 48-58, 1959). Regression of Log (dr-1) on Log [B], where dr is an equiactive response in the presence and absence of antagonist and [B] is the molar concentration of antagonist, allowed an estimate of pA2, i.e. the negative log of the concentration of antagonist which shifts the control histamine concentration-response curve 2X to the right.

[2] = Pharmacokinetic studies comparing relative distribution in brain and plasma; assay type: in vivo; details: rodents
[3] = test system: H1 histamine receptor sites; assay: Binding to H1 histamine receptor sites (statement); design: species or system mammals including humans
[4] = Sedative effects (statement); assay type: in vivo; details: in contrast to the antihistamines in present use
[5] = Anticholinergic activity / side effects (statement); details: in contrast to the antihistamines in present use
[6] = antihistamines now in use; cited from earlier work
[7] = clinical use; cited from earlier work
[8] = human, in vivo; cited from earlier work

Kb [1]: 0.0398 nM
SMILES: O=C(O)/C=C/c1cccc(/C(=C/CN2CCCC2)c2ccc(C(F)(F)F)cc2)n1 [Compound of Formula (I), (E)-3-{6-[3-Pyrrolidino-1(4-Trifluoromethylphenyl)prop-1E-enyl]-2-pyridyl}acrylic acid]
brain penetration [2]: does not readily penetrate the brains of rodents | binding to H1 histamine receptor sites [3]: binds competitively to the H1 histamine receptor sites | sedating effect [4]: essentially not sedating | anticholinergic side effects [5]: little or no anticholinergic side effects

Kb [1]: 0.0794 nM
SMILES: Cc1ccc(/C(=C\CN2CCCC2)c2ccccn2)cc1 [Triprolidine, (E)-1-(4-methylphenyl)-1-(2-pyridyl)-3-pyrrolidinoprop-1-ene]
anticholinergic activity [6]: varying degrees of anticholinergic activity | antihistamine potency [7]: one of the most potent antihistamines available | sedation and drowsiness [8]: produces sedation and drowsiness in varying degrees in most patients

SMILES: CC(CN1c2ccccc2Sc2ccccc21)N(C)C (centres unmarked) [promethazine]
anticholinergic activity [6]: varying degrees of anticholinergic activity

SMILES: COc1ccc(CN(CCN(C)C)c2ccccn2)cc1 [pyrilamine]
anticholinergic activity [6]: varying degrees of anticholinergic activity
